The text below walks through data of US11124495B2, “Tetrahydroisoquinolines and terahydronaphthyridines for the treatment of hepatitis B virus infection” (Hoffmann-La Roche Inc., priority 2016, dated 2021).

The structures appear in SMILES notation. Like-named read-outs stand apart in the source and are kept apart here.

The test system of the assay is HBsAg. As to the kind of experiment: HBsAg assay (CLIA on supernatant of HepG2.2.15 cells). The class given is cell-based, HBV. Particulars: HBsAg secretion reduced by 50% compared to the no drug control. How it is done: HepG2.2.15 cells (Acs et al. Proc Natl Acad Sci USA, 84, (1987), 4641-4), a constitutively HBV-expressing cell line were cultured in DMEM+Glutamax-I medium (Invitrogen, Carlsbad, Calif., USA), supplemented with 10% fetal bovine serum (Invitrogen) and G418 (Invitrogen) at a final concentration of 200 mg/L and maintained in 5% CO2 at 37° C.
HepG2.2.15 cells were seeded in duplicate into white, 96-well plates at 1.5×10^4 cells/well. The cells were treated with a three-fold serial dilution series of the compounds in DMSO. The final DMSO concentration in all wells was 1% and DMSO was used as no drug control.
The HBsAg chemiluminescence immunoassay (CLIA) kit (Autobio Diagnostics Co., Zhengzhou, China, Catalog number: CL0310-2) was used to measure the levels of secreted HBV antigens semi-quantitatively. For the detection 50 μL/well culture supernatant was used and HBsAg was quantified using HBsAg chemiluminescence immunoassay (CLIA) kit (Autobio Diagnostics Co., Zhengzhou, China, Catalog number: CL0310-2), 50 μL of the supernatant was transferred to the CLIA assay plate and 50 μL of enzyme conjugate reagent was added into each well. The plates were sealed and gently agitated for 1 hour at room temperature. The supernatant-enzyme-mixture was discarded and wells were washed 6 times with 300 μL of PBS. The residual liquid was removed by plating the CLIA plate right side down on absorbent tissue paper. 25 μL of substrates A and B were added to each well. Luminance was measured using a luminometer (Mithras LB 940 Multimode Microplate Reader) after 10 minutes incubation. Dose-response curves were generated and the IC50 value was extrapolated by using the E-WorkBook Suite (ID Business Solutions Ltd., Guildford, UK). The IC50 was defined as the compound concentration at which HBsAg secretion was reduced by 50% compared to the no drug control.
The compounds according to formula I were tested for their capacity to inhibit HBsAg as described herein.

Where [1] appears, read: Hepatitis B virus, HepG2.2.15, read-out: IC50 in HBsAg assay, HepG2.2.15 cells.
Where [2] appears, read: read-out: IC50 in HBsAg assay, HepG2.2.15 cells.

As to `c1cnc(-c2ncc(N3CCc4ccccc4C3)cn2)nc1` [Example 1, 2-(2-Pyrimidin-2-ylpyrimidin-5-yl)-3,4-dihydro-1H-isoquinoline], the IC50 under setting [1] is 3170 nM.

With `Fc1ccc2c(c1)CN(c1cnc(-c3ncccn3)nc1)CC2` [Example 2, 7-Fluoro-2-(2-pyrimidin-2-ylpyrimidin-5-yl)-3,4-dihydro-1H-isoquinoline], the IC50 under setting [2] was determined as 22500 nM.

Turning to `COc1cc2c(cc1OC)CN(c1cnc(-c3ncccn3)nc1)CC2` [Example 3, 6,7-Dimethoxy-2-(2-pyrimidin-2-ylpyrimidin-5-yl)-3,4-dihydro-1H-isoquinoline], the IC50 under setting [1] came out at 2320 nM.

`COc1ccc2c(c1)CCN(c1cnc(-c3ncccn3)nc1)C2` [Example 4, 6-Methoxy-2-(2-pyrimidin-2-ylpyrimidin-5-yl)-3,4-dihydro-1H-isoquinoline]: the IC50 under setting [1] was 5200 nM.

As for `COc1cc(F)c2c(c1)CN(c1cnc(-c3ncccn3)nc1)CC2` [Example 5, 5-Fluoro-7-methoxy-2-(2-pyrimidin-2-ylpyrimidin-5-yl)-3,4-dihydro-1H-isoquinoline], under setting [1], the IC50 was 355 nM.

With `COc1cc(F)cc2c1CCN(c1cnc(-c3ncccn3)nc1)C2` [Example 6, 7-Fluoro-5-methoxy-2-(2-pyrimidin-2-ylpyrimidin-5-yl)-3,4-dihydro-1H-isoquinoline], the IC50 under setting [1] was determined as 454 nM.

Regarding `COc1cc(F)c2c(c1)C(C)N(c1cnc(-c3ncccn3)nc1)CC2` (centres unmarked) [Example 7, 5-Fluoro-7-methoxy-1-methyl-2-(2-pyrimidin-2-ylpyrimidin-5-yl)-3,4-dihydro-1H-isoquinoline], the IC50 under setting [1] is 315 nM.

Consider `Clc1ccc2c(c1)CCN(c1cnc(-c3ncccn3)nc1)C2` [Example 9, 6-Chloro-2-(2-pyrimidin-2-ylpyrimidin-5-yl)-3,4-dihydro-1H-isoquinoline], for which the IC50 under setting [1] came out at 2520 nM.

Consider `COc1cc2c(cc1OC)CN(c1ccc(-c3ccccn3)nc1)CC2` [Example 10, 6,7-Dimethoxy-2-[6-(2-pyridyl)-3-pyridyl]-3,4-dihydro-1H-isoquinoline], for which, under setting [1], the IC50 is 3120 nM.

Regarding `Fc1ccc2c(c1)CN(c1cnc(-c3ncccn3)nc1)CC2` [Example 11, 7-Fluoro-2-(2-pyrimidin-2-ylpyrimidin-5-yl)-3,4-dihydro-1H-isoquinoline], the IC50 under setting [2] is 3890 nM.

`COc1ccc2c(n1)CN(c1cnc(-c3ncccn3)nc1)CC2` [Example 12, 2-Methoxy-7-(2-pyrimidin-2-ylpyrimidin-5-yl)-6,8-dihydro-5H-1,7-naphthyridine]: the IC50 under setting [1] came out at 5770 nM.

For `COc1cc2c(cn1)CCN(c1cnc(-c3ncccn3)nc1)C2` [Example 13, 7-Methoxy-2-(2-pyrimidin-2-ylpyrimidin-5-yl)-3,4-dihydro-1H-2,6-naphthyridine], under setting [1], the IC50 stood at 3700 nM.

In the case of `COc1ccc2c(c1)CN(c1cnc(-c3ncccn3)nc1)CC2` [Example 14, 7-Methoxy-2-(2-pyrimidin-2-ylpyrimidin-5-yl)-3,4-dihydro-1H-isoquinoline], under setting [1], the IC50 was found to be 990 nM.

Turning to `c1cnc(-c2ncc(N3CCc4ccc(C5CC5)cc4C3)cn2)nc1` [Example 15, 7-Cyclopropyl-2-(2-pyrimidin-2-ylpyrimidin-5-yl)-3,4-dihydro-1H-isoquinoline], the IC50 under setting [1] was 1690 nM.

Turning to `CN(C)c1ccc2c(c1)CN(c1cnc(-c3ncccn3)nc1)CC2` [Example 16, N,N-Dimethyl-2-(2-pyrimidin-2-ylpyrimidin-5-yl)-3,4-dihydro-1H-isoquinolin-7-amine], the IC50 under setting [1] turned out to be 406 nM.

For `Cc1ccc2c(c1)CN(c1cnc(-c3ncccn3)nc1)CC2` [Example 17, 7-Methyl-2-(2-pyrimidin-2-ylpyrimidin-5-yl)-3,4-dihydro-1H-isoquinoline], the IC50 under setting [1] worked out at 2010 nM.

As for `CNc1ccc2c(c1)CN(c1cnc(-c3ncccn3)nc1)CC2` [Example 18, N-Methyl-2-(2-pyrimidin-2-ylpyrimidin-5-yl)-3,4-dihydro-1H-isoquinolin-7-amine], under setting [1], the IC50 was 4640 nM.

With `Fc1cc(OCC(F)F)cc2c1CCN(c1cnc(-c3ncccn3)nc1)C2` [Example 19, 7-(2,2-Difluoroethoxy)-5-fluoro-2-(2-pyrimidin-2-ylpyrimidin-5-yl)-3,4-dihydro-1H-isoquinoline], under setting [1], the IC50 worked out at 255 nM.

Turning to `N#Cc1ccc2c(c1)CN(c1cnc(-c3ncccn3)nc1)CC2` [Example 20, 2-(2-Pyrimidin-2-ylpyrimidin-5-yl)-3,4-dihydro-1H-isoquinoline-7-carbonitrile], the IC50 under setting [1] stood at 8640 nM.

Consider `Fc1cc(OCC2CC2)cc2c1CCN(c1cnc(-c3ncccn3)nc1)C2` [Example 21, 7-(Cyclopropylmethoxy)-5-fluoro-2-(2-pyrimidin-2-ylpyrimidin-5-yl)-3,4-dihydro-1H-isoquinoline], for which the IC50 under setting [1] worked out at 244 nM.

Consider `Clc1ccc2c(c1)CN(c1cnc(-c3ncccn3)nc1)CC2` [Example 22, 7-Chloro-2-(2-pyrimidin-2-ylpyrimidin-5-yl)-3,4-dihydro-1H-isoquinoline], for which the IC50 under setting [1] came out at 2040 nM.

For `CN(C)c1ccc2c(c1)CCN(c1cnc(-c3ncccn3)nc1)C2` [Example 23, N,N-Dimethyl-2-(2-pyrimidin-2-ylpyrimidin-5-yl)-3,4-dihydro-1H-isoquinolin-6-amine], the IC50 under setting [1] came to 2220 nM.

With `c1cnc(-c2ncc(N3CCc4cc(C5CC5)ccc4C3)cn2)nc1` [Example 24, 6-Cyclopropyl-2-(2-pyrimidin-2-ylpyrimidin-5-yl)-3,4-dihydro-1H-isoquinoline], the IC50 under setting [1] was 1380 nM.

As to `N#Cc1cccc2c1CCN(c1cnc(-c3ncccn3)nc1)C2` [Example 25, 2-(2-Pyrimidin-2-ylpyrimidin-5-yl)-3,4-dihydro-1H-isoquinoline-5-carbonitrile], under setting [1], the IC50 was 1190 nM.

Regarding `COC1CN(c2ccc3c(c2)CN(c2cnc(-c4ncccn4)nc2)CC3)C1` [Example 26, 7-(3-Methoxyazetidin-1-yl)-2-(2-pyrimidin-2-ylpyrimidin-5-yl)-3,4-dihydro-1H-isoquinoline], under setting [1], the IC50 was determined as 1410 nM.

Take `Fc1cccc2c1CCN(c1cnc(-c3ncccn3)nc1)C2` [Example 27, 5-Fluoro-2-(2-pyrimidin-2-ylpyrimidin-5-yl)-3,4-dihydro-1H-isoquinoline]: the IC50 under setting [1] worked out at 3030 nM.

For `NC(=O)COc1cc(F)c2c(c1)CN(c1cnc(-c3ncccn3)nc1)CC2` [Example 28, 2-[[5-Fluoro-2-(2-pyrimidin-2-ylpyrimidin-5-yl)-3,4-dihydro-1H-isoquinolin-7-yl]oxy]acetamide], under setting [1], the IC50 came out at 8520 nM.

For the molecule `c1cnc(-c2ncc(N3CCc4c(cccc4C4CC4)C3)cn2)nc1` [Example 29, 5-Cyclopropyl-2-(2-pyrimidin-2-ylpyrimidin-5-yl)-3,4-dihydro-1H-isoquinoline], under setting [1], the IC50 stood at 6890 nM.

For the molecule `CN(C)c1cccc2c1CCN(c1cnc(-c3ncccn3)nc1)C2` [Example 30, N,N-Dimethyl-2-(2-pyrimidin-2-ylpyrimidin-5-yl)-3,4-dihydro-1H-isoquinolin-5-amine], the IC50 under setting [1] was 43300 nM.

Regarding `COc1cc(Cl)c2c(c1)CN(c1cnc(-c3ncccn3)nc1)CC2` [Example 31, 5-Chloro-7-methoxy-2-(2-pyrimidin-2-ylpyrimidin-5-yl)-3,4-dihydro-1H-isoquinoline], the IC50 under setting [1] is 68 nM.

On to `COc1cc(Cl)cc2c1CCN(c1cnc(-c3ncccn3)nc1)C2` [Example 32, 7-Chloro-5-methoxy-2-(2-pyrimidin-2-ylpyrimidin-5-yl)-3,4-dihydro-1H-isoquinoline], for which, under setting [1], the IC50 was 251 nM.

Turning to `CCC1c2cc(OC)cc(F)c2CCN1c1cnc(-c2ncccn2)nc1` (centres unmarked) [Example 33, Ethyl-5-fluoro-7-methoxy-2-(2-pyrimidin-2-ylpyrimidin-5-yl)-3,4-dihydro-1H-isoquinoline], the IC50 under setting [1] was 790 nM.

What is called IC50 is the point on the concentration scale where inhibition reaches its midpoint.
